Source: patent US7132409B2, “Adenosine derivatives and use thereof” (Toa Eiyo Ltd., priority 2000, dated 2006)
In brackets after ≈: the same amount, converted by molar mass. Where two headings read alike, the source gives them in different places.

How the values were obtained:
optic nerve failure = assay: Model of retina failure induced through reperfusion after transient ischemia in rat; format: in vivo
[1] = Test Example 2: saturation solubility in isotonic borate buffer (HPLC); conditions: for solubility at 6 h: isotonic borate buffer, 20 °C, pH 7, aqueous buffer, thermodynamic from solid
Procedure: (§1) Each of the test compounds was dispersed in an isotonic borate buffer (pH 7.0). The resultant mixture was shaken at 20° C. for 6 hours and then centrifuged. The concentration of the test compound in the supernatant was measured through HPLC for calculation of saturation solubility of the compound.
(§2) Detector: UV absorptiometer (wavelength: 270 nm)
(§3) Column: ODS column (inner diameter 4.6 mm, length 15 cm)
(§4) Mobile phase: An acetonitrile/triethylammonium acetate buffer (pH 7) mixture

blood flow in the retina = assay: Effects on blood vessel diameter and blood flow in the retina of rabbits; format: in vivo
[2] = tested on: ocular tension of Japanese white rabbits; assay: Test Example 1: effect of lowering ocular tension after instillation in rabbit eyes; format: in vivo; conditions: 0.1% solution, 50 μL instilled to one eye; for AUC (area under the curve of time versus change in difference in ocular tension, treated eye vs eye drop base eye): up to 480 min
Procedure: Each of the mentioned compounds was dissolved in saline containing polysorbate 80 (hereinafter the saline will be referred to as “eye drop base A”) or in a borate buffer (pH 7.0) containing polysorbate 80 (hereinafter the solution will be referred to as “eye drop base B”) (polysorbate 80 content of each base: 5 mg/mL).
Japanese white rabbits (male; Kitayama Labes Co., Ltd.) (weight: 2.7–3.9 kg) were employed in the test for measuring ocular tension. The rabbits were retained in a box-type fixation apparatus during the test.
The ocular tension of each rabbit was measured by use of a Model 30 Classic Pneumatonometer (product of Mentor) without anesthesia. Before the ocular tension was measured, 0.4% oxybuprocaine hydrochloride (Benoxil 0.4% eye drop solution, product of Santen Pharmaceutical Co., Ltd.) was instilled into the eyes of each rabbit, to thereby anesthetize the surface of the cornea. The ocular tension of each rabbit was measured several times at predetermined intervals. Three measurements of ocular tension, as measured when a constant value was reached, were averaged, and the average value was employed as representing the ocular tension.
A 0.1% solution of each test compound (50 μL) was instilled to one eye of each of the respective rabbits, and simultaneously the eye drop base (50 μL) was instilled to the other eye. The ocular tensions of both eyes were measured 60 minutes before instillation of the test compound; 0 minute immediately before instillation; and 30, 60, 90, 120, 150, 180, 240, 300, 360, 420, and 480 minutes after instillation. Four to six rabbits were employed for each test compound. For control, each eye drop base was instilled to both eyes of rabbits, and the ocular tension thereof was measured in a manner similar to that described above.
For each test compound, the effect of lowering ocular tension was evaluated on the basis of the following values: the area under the curve of time versus change in difference between the ocular tension of the eye to which the test compound was instilled and that of the eye to which the eye drop base was instilled (hereinafter the area will be abbreviated as AUC (mmHg•min)); and the maximum value of difference between the ocular tension of the eye to which the test compound was instilled and that of the eye to which the eye drop base was instilled (hereinafter the value will be abbreviated as Emax (mmHg)).

[3] = pH 7
Procedure: as §1, §2, §3, §4

[4] = eye drop base B (borate buffer pH 7.0 with polysorbate 80)
[5] = eye drop base A (saline with polysorbate 80)

Structure (SMILES): N#CCCCCC#Cc1nc(N)c2ncn([C@@H]3O[C@H](CO)[C@@H](O)[C@H]3O)c2n1 [Compound 1, 2-(6-cyano-1-hexyn-1-yl)adenosine]
- effects of protecting optic nerve failure (optic nerve failure): particularly excellent effects of protecting optic nerve failure
- solubility at 6 h [1]: 16600 µg/mL (≈ 44600 µM)
- effects of promoting vasodilatation and blood flow in the retina (blood flow in the retina): particularly excellent effects of promoting vasodilatation and blood flow in the retina
- melting point: 91 to 94 °C
- Emax (maximum difference in ocular tension, treated eye vs eye drop base eye) [2, 4]: −4.3 mmHg
- AUC (area under the curve of time versus change in difference in ocular tension, treated eye vs eye drop base eye) [2, 4]: −1303.1 mmHg · min

Structure (SMILES): N#CCCCCC#Cc1nc(N)c2ncn([C@@H]3O[C@H](COP(=O)([O-])[O-])[C@@H](O)[C@H]3O)c2n1.[Na+].[Na+] [Compound 2, disodium 2-(6-cyano-1-hexyn-1-yl)adenosine 5′-monophosphate]
- solubility at 6 h [1]: > 200000 µg/mL
- Emax (maximum difference in ocular tension, treated eye vs eye drop base eye) [2, 4]: −6.0 mmHg
- AUC (area under the curve of time versus change in difference in ocular tension, treated eye vs eye drop base eye) [2, 4]: −1965.0 mmHg · min

Structure (SMILES): N#CCCCC#Cc1nc(N)c2ncn([C@@H]3O[C@H](CO)[C@@H](O)[C@H]3O)c2n1 [Referential Compound 1, 2-(5-cyano-1-pentyn-1-yl)adenosine]
- Emax (maximum difference in ocular tension, treated eye vs eye drop base eye) [2, 4]: −3.0 mmHg
- AUC (area under the curve of time versus change in difference in ocular tension, treated eye vs eye drop base eye) [2, 4]: −584.0 mmHg · min

Structure (SMILES): N#CCCCCCC#Cc1nc(N)c2ncn([C@@H]3O[C@H](CO)[C@@H](O)[C@H]3O)c2n1 [Referential Compound 2, 2-(7-cyano-1-heptyn-1-yl)adenosine]
- Emax (maximum difference in ocular tension, treated eye vs eye drop base eye) [2, 4]: −2.6 mmHg
- AUC (area under the curve of time versus change in difference in ocular tension, treated eye vs eye drop base eye) [2, 4]: −844.5 mmHg · min

Structure (SMILES): Nc1nc(C#CC2CCCC2)nc2c1ncn2[C@@H]1O[C@H](CO)[C@@H](O)[C@H]1O [Referential Compound 3, 2-cyclopentylethynyladenosine]
- Saturation solubility [3]: 1400 µg/mL
- Emax (maximum difference in ocular tension, treated eye vs eye drop base eye) [2, 4]: −4.4 mmHg
- AUC (area under the curve of time versus change in difference in ocular tension, treated eye vs eye drop base eye) [2, 4]: −1532.7 mmHg · min

Structure (SMILES): CCCCCCC#Cc1nc(N)c2ncn([C@@H]3O[C@H](CO)[C@@H](O)[C@H]3O)c2n1 [Referential Compound 4, 2-(1-octyn-1-yl)adenosine]
- solubility at 6 h [1]: 300 µg/mL (≈ 799 µM)
- Emax (maximum difference in ocular tension, treated eye vs eye drop base eye) [2, 5]: −4.2 mmHg
- AUC (area under the curve of time versus change in difference in ocular tension, treated eye vs eye drop base eye) [2, 5]: −1093.5 mmHg · min

Structure (SMILES): Nc1nc(C#CCCCCN2C(=O)c3ccccc3C2=O)nc2c1ncn2[C@@H]1O[C@H](CO)[C@@H](O)[C@H]1O [Referential Compound 5, 2-(6-phthalimidyl-1-hexyn-1-yl)adenosine]
- solubility at 6 h [1]: 700 µg/mL (≈ 1420 µM)
- Emax (maximum difference in ocular tension, treated eye vs eye drop base eye) [2, 5]: −6.3 mmHg
- AUC (area under the curve of time versus change in difference in ocular tension, treated eye vs eye drop base eye) [2, 5]: −1471.0 mmHg · min

Structure (SMILES): CCCCC#Cc1nc(N)c2ncn([C@@H]3O[C@H](C(=O)NC)[C@@H](O)[C@H]3O)c2n1 [Referential Compound 6, 2-(1-hexyn-1-yl)adenosine-4′-methylcarboxamide]
- Saturation solubility ([1]; isotonic borate buffer pH 7.0, shaken at 20° C. for 6 hours): 500 µg/mL
- Emax (maximum difference in ocular tension, treated eye vs eye drop base eye) [2, 5]: −6.0 mmHg
- AUC (area under the curve of time versus change in difference in ocular tension, treated eye vs eye drop base eye) [2, 5]: −1838.3 mmHg · min
